ChEMBL document CHEMBL4428133, “Tyrosyl-DNA phosphodiesterase inhibitors: Progress and potential” (Bioorg Med Chem, 2016)

Tests used:
[1] = target: T1, Tyrosyl-DNA phosphodiesterase 1 (Homo sapiens, UniProt Q9NUW8); test: Inhibition of recombinant TDP1 (unknown origin) using 5'-32P-labeled N14Y DNA substrate incubated for 20 mins by PAGE analysis
[2] = target: T2, Tyrosyl-DNA phosphodiesterase 2 (Homo sapiens, UniProt O95551); test: Inhibition of human N-terminal His-tagged TDP2 expressed in Escherichia coli JM109(DE3) using 5'-Y-TCCGTTGAAGCCTGCTTT-3' as substrate incubated for 60 mins by microplate reader analysis
T2 sequence (O95551 whole entry): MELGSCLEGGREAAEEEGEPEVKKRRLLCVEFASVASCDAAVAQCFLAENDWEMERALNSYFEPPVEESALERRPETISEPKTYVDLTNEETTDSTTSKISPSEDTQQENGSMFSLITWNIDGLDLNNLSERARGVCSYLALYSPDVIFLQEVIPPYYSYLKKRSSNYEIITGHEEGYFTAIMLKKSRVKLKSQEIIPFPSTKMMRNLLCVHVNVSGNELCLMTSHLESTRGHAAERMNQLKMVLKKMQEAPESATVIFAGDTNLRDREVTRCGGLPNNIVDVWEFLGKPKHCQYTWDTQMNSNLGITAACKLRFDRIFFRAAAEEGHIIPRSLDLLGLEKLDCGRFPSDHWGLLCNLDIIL

[3] = target: T1, Tyrosyl-DNA phosphodiesterase 1; test: Inhibition of human N-terminal His-tagged TDP1 expressed in Escherichia coli BL21 using [32P]-D14Y duplex DNA as substrate incubated for 20 mins by PAGE analysis
[4] = Non-competitive inhibition of human 7721 cell membrane-derived phospholipase D using phosphatidylcholine as substrate preincubated for 10 mins followed by substrate addition in presence of PIP2 by Cornish-Bowden plot analysis
[5] = target: T1, Tyrosyl-DNA phosphodiesterase 1; test: Inhibition of recombinant TDP1 (unknown origin) using 5'-32P-labeled N14Y DNA substrate incubated for 15 mins by PAGE analysis
[6] = target: T2, Tyrosyl-DNA phosphodiesterase 2; test: Inhibition of human recombinant TDP2 using 18-mer single stranded 5'-32P-labeled cordycepin DNA substrate incubated for 15 mins by PAGE analysis
[7] = target: T3, DNA topoisomerase 1 (Homo sapiens, UniProt P11387); test: Inhibition of topoisomerase-1 (unknown origin) using pBR 322 DNA as substrate
T3 sequence (P11387 whole entry): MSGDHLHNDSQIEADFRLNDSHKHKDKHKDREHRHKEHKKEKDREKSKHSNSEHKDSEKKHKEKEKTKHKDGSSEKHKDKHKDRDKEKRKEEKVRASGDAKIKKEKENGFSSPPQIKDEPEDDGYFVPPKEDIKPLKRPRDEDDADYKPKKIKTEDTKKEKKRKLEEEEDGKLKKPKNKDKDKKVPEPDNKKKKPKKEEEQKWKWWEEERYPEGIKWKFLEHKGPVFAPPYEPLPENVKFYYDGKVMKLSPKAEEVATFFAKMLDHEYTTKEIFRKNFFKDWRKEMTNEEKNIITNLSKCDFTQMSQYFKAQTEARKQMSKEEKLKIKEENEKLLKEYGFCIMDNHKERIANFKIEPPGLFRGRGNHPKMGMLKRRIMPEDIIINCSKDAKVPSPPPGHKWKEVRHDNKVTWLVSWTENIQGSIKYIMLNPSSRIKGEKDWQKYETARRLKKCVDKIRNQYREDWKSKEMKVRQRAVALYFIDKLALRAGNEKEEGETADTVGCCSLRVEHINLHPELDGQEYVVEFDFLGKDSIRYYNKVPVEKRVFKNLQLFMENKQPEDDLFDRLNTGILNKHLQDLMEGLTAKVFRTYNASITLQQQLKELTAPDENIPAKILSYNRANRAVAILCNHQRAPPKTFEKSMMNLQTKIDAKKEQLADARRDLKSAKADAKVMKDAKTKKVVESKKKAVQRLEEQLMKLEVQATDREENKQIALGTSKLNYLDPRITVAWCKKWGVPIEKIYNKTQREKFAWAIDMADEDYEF

[8] = target: T1, Tyrosyl-DNA phosphodiesterase 1; test: Inhibition of TDP1 (unknown origin) using 14-mer duplex oligonucleotide [32P]-D14Y as substrate incubated for 20 mins by PAGE analysis
[9] = Inhibition of human Jurkat cell membrane-derived protein tyrosine phosphatase using o-phospho-L-tyrosine as substrate incubated for 15 mins by malachite green staining based assay
[10] = target: T1, Tyrosyl-DNA phosphodiesterase 1; test: Inhibition of N-terminal His-tagged TDP1 (unknown origin) expressed in Escherichia coli BL21(DE3) using 5'-6-FAM-AGGATCTAAAAGACTT-3BHQ-3' as substrate preincubated for 30 mins followed by substrate addition by fluorescence assay
[11] = tested on: MCF7; test: Growth inhibition of human MCF7 cells at 10 uM after 96 hrs in presence of camptothecin by MTT assay relative to camptothecin alone; format: functional; conditions: MCF7, 96 h, read-out: GI
[12] = target: T2, Tyrosyl-DNA phosphodiesterase 2; test: Inhibition of TDP2 (unknown origin)

T1 sequence (Q9NUW8 whole entry): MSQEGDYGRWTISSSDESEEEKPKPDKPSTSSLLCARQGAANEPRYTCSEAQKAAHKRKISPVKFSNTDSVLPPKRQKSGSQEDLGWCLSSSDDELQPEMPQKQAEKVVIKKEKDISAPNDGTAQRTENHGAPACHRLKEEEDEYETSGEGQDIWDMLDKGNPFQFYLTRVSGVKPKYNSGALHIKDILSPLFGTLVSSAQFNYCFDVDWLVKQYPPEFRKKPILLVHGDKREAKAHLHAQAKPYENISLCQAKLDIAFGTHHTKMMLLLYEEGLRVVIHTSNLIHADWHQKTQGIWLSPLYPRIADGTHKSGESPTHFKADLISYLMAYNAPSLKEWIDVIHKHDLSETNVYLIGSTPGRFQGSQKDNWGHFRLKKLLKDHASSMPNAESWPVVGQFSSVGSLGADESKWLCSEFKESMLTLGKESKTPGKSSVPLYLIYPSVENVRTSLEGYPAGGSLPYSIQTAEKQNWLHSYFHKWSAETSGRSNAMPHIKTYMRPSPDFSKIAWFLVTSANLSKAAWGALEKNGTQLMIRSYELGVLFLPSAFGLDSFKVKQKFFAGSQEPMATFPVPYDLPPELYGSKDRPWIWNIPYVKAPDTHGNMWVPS

Structure (SMILES): Cc1ccc(C(=O)Nc2ccc(S(=O)(=O)O)c3cc(S(=O)(=O)O)cc(S(=O)(=O)O)c23)cc1NC(=O)c1cccc(NC(=O)Nc2cccc(C(=O)Nc3cc(C(=O)Nc4ccc(S(=O)(=O)O)c5cc(S(=O)(=O)O)cc(S(=O)(=O)O)c45)ccc3C)c2)c1 [SURAMIN]
- IC50 [1]: 5 µM
- EC50 [2]: 24 µM

Structure (SMILES): Cc1cc2nc3c(=O)[nH]c(=O)nc-3n(C)c2cc1C=O
- EC50 [2]: 3.5 µM

Structure (SMILES): C=C(NC(=O)C(=C)NC(=O)c1csc(C2=N[C@@H]3c4csc(n4)[C@H]4NC(=O)c5csc(n5)[C@H]([C@](C)(O)[C@@H](C)O)NC(=O)[C@H]5CSC(=N5)/C(=C/C)NC(=O)[C@H]([C@@H](C)O)NC(=O)c5csc(n5)[C@]3(CC2)NC(=O)[C@H](C)NC(=O)C(=C)NC(=O)[C@H](C)NC(=O)[C@H]([C@@H](C)CC)N[C@@H]2C=Cc3c([C@H](C)O)cc(nc3[C@H]2O)C(=O)O[C@@H]4C)n1)C(N)=O [THIOSTREPTON]
- IC50 [3]: 1800 µM

Structure (SMILES): NCC1O[C@H](O[C@H]2[C@@H](O)[C@H](O[C@@H]3[C@@H](O)[C@H](N)C[C@H](N)[C@H]3O[C@H]3O[C@H](CN)[C@@H](O)[C@H](O)[C@H]3N)O[C@@H]2CO)[C@H](N)[C@@H](O)[C@@H]1O (some centres undefined)
- Ki [4]: 8700 µM

Structure (SMILES): O=C(O)c1ccc(-c2ccc(/C=C3/NC(=O)N(Cc4ccccc4F)C3=O)o2)cc1
- IC50 [5]: 7.7 µM
- IC50 [6]: 32 µM

Structure (SMILES): O=C1c2c(c3c4cccc(O)c4n([C@@H]4O[C@H](CO)[C@@H](O)[C@H](O)[C@H]4O)c3c3[nH]c4c(O)cccc4c23)C(=O)N1NC(CO)CO
- EC50 [7]: 0.58 µM

Structure (SMILES): NC[C@@H]1O[C@H](O[C@H]2[C@@H](O)[C@H](O[C@@H]3[C@@H](O)[C@H](N)C[C@H](N)[C@H]3O[C@H]3O[C@H](CO)[C@@H](O)C[C@H]3N)O[C@@H]2CO)[C@H](N)[C@@H](O)[C@@H]1O[C@H]1O[C@H](CO)[C@@H](O)[C@H](O)[C@@H]1O [LIVIDOMYCIN]
- IC50 [8]: 30000 µM

Structure (SMILES): COc1c(N2CCN(CNc3ccc(S(=O)(=O)Nc4nc(C)cc(C)n4)cc3)C(C)C2)c(F)cc2c(=O)c(C(=O)O)cn(C3CC3)c12 (centres undefined)
- IC50 [5]: 0.022 µM

Structure (SMILES): COc1ccc(C[C@H](N)C(=O)N[C@H]2[C@@H](O)[C@H](n3cnc4c(N(C)C)ncnc43)O[C@@H]2CO)cc1 [PUROMYCIN]
- IC50 [3]: 18000 µM

Structure (SMILES): COc1ccc2c(c1)Oc1nc(-c3ccc(C)cc3)nc(SCC(=O)Nc3ccc(C(=O)O)cc3)c1C2
- IC50 [5]: 12.1 µM

Structure (SMILES): CN(N=O)c1cc(O)ccc1O [DEPHOSTATIN]
- IC50 [9]: 7.7 µM

Structure (SMILES): O=C1NC(=S)NC(=O)C1=Cc1ccco1
- IC50 [10]: 0.71 µM
- inhibition of growth at 10 µM [11]: 25%

Structure (SMILES): CCC[C@@H]1C[C@@H](C(=O)N[C@@H]([C@H]2O[C@H](SC)[C@H](OP(=O)(O)O)[C@@H](O)[C@H]2O)[C@H](C)Cl)N(C)C1 [CLINDAMYCIN PHOSPHATE]
- IC50 [3]: 9100 µM

Structure (SMILES): CCN[C@@H]1C[C@H](N)[C@@H](O[C@H]2OC(CN)=CC[C@H]2N)[C@H](O)[C@H]1O[C@H]1OC[C@](C)(O)[C@H](NC)[C@H]1O [NETILMICIN]
- IC50 [8]: 8000 µM

Structure (SMILES): CCn1cc(C(=O)O)c(=O)c2cc(F)c(N3CCN(CNc4ccc(S(=O)(=O)Nc5nc(C)cc(C)n5)cc4)CC3)cc21
- IC50 [5]: 0.005 µM

Structure (SMILES): NC1=CC(N)=C2C=CC(=O)N=C2C1=O
- IC50 [12]: 2 µM
